Key:
Recombinant human LOXL4 = target: T1, Recombinant human LOXL4 (Homo sapiens, UniProt Q96JB6); experiment: Amplex-Red fluorometric enzymatic activity assay, recombinant human LOXL4; type: biochemical; conditions: 30 minute pre-incubation; average of at least three experiments
T1 construct: obtained from Dr. Fernando Rodríguez Pascual, university of Madrid, Spain (academic provider, not a vendor)
Method: The measurement of the enzymatic activity of all lysyl oxidase family members was based on the detection of hydrogen peroxide with an Amplex‐Red oxidation assay, as described in Zhou et al26 Recombinant human semicarbazide sensitive amine oxidase (SSAO/VAP1), diamine oxidase (DAO) and monoamine oxidases A and B (MAO‐A and MAO‐B) assays were performed as previously described.27 For detailed enzymatic procedures, see supporting information.
The measurement of the enzymatic activity of all lysyl oxidase family members was based on the detection of hydrogen peroxide with an Amplex-Red oxidation assay, as described in Zhou et al.[1]; miniaturised in 384 well format, with the appropriate combination of substrate and assay buffer for each individual enzyme. After a 30 minute pre-incubation of the enzyme at 37 °C with the test compound (or with different incubation times for the time-dependency assay), one volume of reaction mixture containing 120 μM Amplex Red (AR) (Life Technologies), 1.5 U/mL horseradish peroxidase (HRP) (Sigma-Aldrich) and the specific substrate was added to each sample. The relative fluorescence units (RFU) were then measured every 2.5 minutes for 30 minutes at 37°C, excitation 565 nm and emission 590, on a BMG Clariostar Microplate Reader. […]

LOXL2 [1] = target: T2, LOXL2 (Homo sapiens, UniProt Q9Y4K0); experiment: Time dependency of LOXL2 inhibition; type: biochemical
T2 sequence (Q9Y4K0 26-774): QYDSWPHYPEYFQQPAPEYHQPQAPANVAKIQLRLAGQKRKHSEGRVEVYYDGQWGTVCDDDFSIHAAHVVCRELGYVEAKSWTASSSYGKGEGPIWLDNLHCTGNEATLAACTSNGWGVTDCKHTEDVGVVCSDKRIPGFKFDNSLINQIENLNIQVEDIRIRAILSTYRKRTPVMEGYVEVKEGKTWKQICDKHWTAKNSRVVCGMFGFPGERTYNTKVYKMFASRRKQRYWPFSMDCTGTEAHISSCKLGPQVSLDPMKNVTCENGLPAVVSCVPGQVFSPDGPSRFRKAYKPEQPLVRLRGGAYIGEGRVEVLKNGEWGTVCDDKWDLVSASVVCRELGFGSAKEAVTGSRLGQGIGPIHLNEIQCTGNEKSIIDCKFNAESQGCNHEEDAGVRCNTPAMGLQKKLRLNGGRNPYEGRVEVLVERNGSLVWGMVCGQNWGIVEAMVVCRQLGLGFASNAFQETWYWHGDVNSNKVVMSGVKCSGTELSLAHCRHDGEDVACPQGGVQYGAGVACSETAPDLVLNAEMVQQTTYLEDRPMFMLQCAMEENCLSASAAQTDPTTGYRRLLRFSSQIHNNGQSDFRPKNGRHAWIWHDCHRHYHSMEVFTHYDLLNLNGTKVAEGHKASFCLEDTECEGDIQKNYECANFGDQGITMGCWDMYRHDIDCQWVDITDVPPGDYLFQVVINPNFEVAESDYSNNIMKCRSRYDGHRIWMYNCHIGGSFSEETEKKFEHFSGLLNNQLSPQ
Method: The measurement of the enzymatic activity of all lysyl oxidase family members was based on the detection of hydrogen peroxide with an Amplex-Red oxidation assay, as described in Zhou et al.[1]; miniaturised in 384 well format, with the appropriate combination of substrate and assay buffer for each individual enzyme. After a 30 minute pre-incubation of the enzyme at 37 °C with the test compound (or with different incubation times for the time-dependency assay), one volume of reaction mixture containing 120 μM Amplex Red (AR) (Life Technologies), 1.5 U/mL horseradish peroxidase (HRP) (Sigma-Aldrich) and the specific substrate was added to each sample. The relative fluorescence units (RFU) were then measured every 2.5 minutes for 30 minutes at 37°C, excitation 565 nm and emission 590, on a BMG Clariostar Microplate Reader. All the substrates were used at concentrations corresponding to their Km towards the corresponding enzyme, or with a range of different concentrations for the substrate competition experiments.
Time-dependent inhibition of the target by the compound was assessed by pre-incubation of 25 uL of target enzyme at 37 °C in a 384-well plate. An 11-point dilution was carried out of the test compound followed by its addition at 0.5 uL to the enzyme plate at different time points (0 minutes, 15 minutes, 30 minutes, 1hour, 2 hours and 4 hours unless otherwise stated in the graph). At the last time point, the reaction mixture was added and the relative fluorescence was measured.

[2] = system: Calcium Channel L-Type, Dihydropyridine; experiment: Eurofins Hit Profiling Screen; type: binding, rat; conditions: 10 μmol/L
[3] = Pharmacokinetic study in rats; type: in vivo, Wistar rats; conditions: rat
Method: Studies were performed by Pharmalegacy (Shanghai, China), GVK (Hyderabad, India) and Sundia, (Shanghai, China), with local ethics approval. Wistar rats were administered PXS‐5153A orally at 10 mg/kg or intravenously at 5 mg/kg, while C57/BL6 mice received PXS‐5153A orally or intravenously at 5 mg/kg. Plasma was analysed for PXS‐5153A by high‐performance liquid chromatography‐mass spectrometry/mass spectrometry (LCMS/MS).

LOXL2 [4] = target: T2, LOXL2; experiment: Collagen oxidation assay; type: biochemical; set-up: purchased R&D Systems; conditions: 20 nmol/L rhLOXL2, different concentrations of PXS-5153A, slope at 20-40 minute
Method: Collagen oxidation assay was based on the release of hydrogen peroxide as previously described27 and detailed in the supporting information. Briefly, collagen was combined with rhLOXL2 with or without the pan‐lysyl oxidase inhibitor BAPN (β‐aminoproprionitrile, 100 μmol/L, Sigma‐Aldrich) or PXS‐5153A. An Amplex reaction mixture was added into each well. The slope per minute of the kinetic curves for each sample was calculated using MARS data analysis software (BMG labtech) in the linear phase (between the 20 and 40 minute time points).
Collagen oxidation assay was based on the release of hydrogen peroxide as described previously described. In a 384 black well plate, 25 μL of collagen (rat tail, type I, Thermo Fisher, 1.5 mg/mL in 50 mM sodium borate buffer, pH 8.2) was combined with 25 μL rhLOXL2 (R&D Systems) with or without the pan-lysyl oxidase inhibitor BAPN (100 μM, Sigma-Aldrich) or PXS-5153A. A reaction mixture using AR (120 μM; Life Technologies), HRP (1.5 U/mL; Sigma-Aldrich) was prepared in 50 mM sodium borate buffer. […] The relative fluorescence units (RFU) were read every 1 minute for 3 hours at 37°C, excitation 565 nm and emission 590 (Clariostar, BMG labtech). The slope per minute of the kinetic curves for each sample was calculated using MARS data analysis software (BMG labtech) in the linear phase (between the 20-40 minute time points).

T1 sequence (Q96JB6 25-756): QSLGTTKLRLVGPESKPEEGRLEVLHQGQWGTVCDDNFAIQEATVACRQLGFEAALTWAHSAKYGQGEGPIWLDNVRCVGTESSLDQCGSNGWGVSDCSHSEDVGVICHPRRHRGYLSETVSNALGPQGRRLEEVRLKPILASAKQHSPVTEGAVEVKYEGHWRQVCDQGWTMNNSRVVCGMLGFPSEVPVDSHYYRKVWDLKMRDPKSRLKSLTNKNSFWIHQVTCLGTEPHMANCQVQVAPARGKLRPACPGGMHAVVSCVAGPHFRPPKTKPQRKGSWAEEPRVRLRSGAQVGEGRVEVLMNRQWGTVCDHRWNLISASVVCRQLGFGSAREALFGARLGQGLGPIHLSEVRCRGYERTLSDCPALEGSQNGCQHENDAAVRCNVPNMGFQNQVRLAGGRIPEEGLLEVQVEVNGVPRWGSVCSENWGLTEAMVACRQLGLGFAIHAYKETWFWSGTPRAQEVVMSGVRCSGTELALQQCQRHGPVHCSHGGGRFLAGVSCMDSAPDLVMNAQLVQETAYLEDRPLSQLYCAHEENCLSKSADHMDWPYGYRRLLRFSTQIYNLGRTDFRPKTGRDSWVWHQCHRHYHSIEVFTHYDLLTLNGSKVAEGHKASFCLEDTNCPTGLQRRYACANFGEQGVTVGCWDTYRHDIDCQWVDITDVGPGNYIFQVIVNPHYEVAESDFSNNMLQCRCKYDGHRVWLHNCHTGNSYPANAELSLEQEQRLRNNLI

SMILES: Cc1c(-c2cccc(S(=O)(=O)N(C)C)c2)c2ncccc2n1C/C(F)=C/CN.Cl.Cl [PXS-5153A]
- IC50 (Recombinant human LOXL4): 104 nM
- pIC50 ± SD (Recombinant human LOXL4): 7 ± 0.1
- time to complete inhibition of the enzyme (LOXL2 [1]; at 10xIC50): ≤ 15 min
- time until enzymatic activity almost entirely blocked (LOXL2 [1]; judged by the shift in the concentration response curves): ≤ 15 min
- time-dependent LOXL2 inhibition (LOXL2 [1]; longer incubation with the enzyme): increased potency upon longer incubation with the enzyme
- % inhibition [2]: 80%
- Apparent half-life, t1/2 ([3]; intravenous 5 mg/kg): 1.3 h
- Clearance CL ([3]; intravenous 5 mg/kg): 180 mL/kg/min
- Time of maximal concentration Tmax ([3]; intravenous 5 mg/kg): 1.8 min
- Apparent concentration at curve maximum Cmax ([3]; oral 10 mg/kg): 33 ng/mL
- Clearance CL ([3]; oral 10 mg/kg): 2029 mL/kg/min
- Time of maximal concentration Tmax ([3]; oral 10 mg/kg): 37.5 min
- Bioavailability ([3]; oral 10 mg/kg (i.v. 5 mg/kg)): 10%
- collagen oxidation (LOXL2 [4]): impeding collagen oxidation

From PMC6378217, “The lysyl oxidase like 2/3 enzymatic inhibitor, PXS‐5153A, reduces crosslinks and ameliorates fibrosis” (Journal of Cellular and Molecular Medicine, 2018)
